This note sets out measurements from US11059795B2, “Androgen receptor modulators and methods for their use” (ESSA Pharma, Inc., priority 2018, dated 2021).

The nature of data set [1]: In vivo pharmacokinetics in plasma after oral gavage (PO) in male CD-1 mice. Particulars: for bioavailability / AUC(0-t) / Cmax / Tmax / half-life: mouse; for half-life: read-out: t½ (converted); for Cmin at 5 mg/kg PO: Table 4. The protocol: The purpose of this study is to determine the pharmacokinetics of the tested compounds in plasma, following oral gavage administration (PO) to male CD-1 mice.
Animal Husbandry: Animals were group housed during acclimation and the study. The animal room environment were controlled (target conditions: temperature 18 to 26° C., relative humidity 30 to 70%, 12 hours artificial light and 12 hours dark). Temperature and relative humidity were monitored daily. Animals were fasted at least 12 hours prior to the administration. All animals had access to Certified Rodent Diet ad libitum 4 hours post dosing.
Dose Formulation: prepared 85-100 uL of a stock solution of representative compounds of the disclosure in DMSO at 50 mM; 1.5% v/v of Tween 80 were added and mixed gently; 95.5% v/v saline was added gently to the organic phase. The solution was mixed slowly by reverse pipetting to get a clear solution.
Dose Administration: the dose formulations were administered via oral gavage per facility SOPs. The dose volume were determined by the animals' body weight collected on the morning of dosing day
Sample Collection: blood collection (about 0.05 mL per time point) was performed from saphenous vein of each animal into polypropylene tubes at each timepoints (0, 0.25, 0.5, 1, 2, 4, 8, 12, and 24 hr). All blood samples were transferred into pre-chilled tubes containing 2 μL of K2-EDTA (0.5M) and placed on wet ice until centrifugation. Each collected blood sample was in the wet-ice before centrifugation. Each collected blood was under centrifugation for 15 minutes at 4° C. and 3000 g for plasma collection. Plasma samples were stored in polypropylene tubes, quickly frozen over dry ice and kept at −70±10° C. until LC/MS/MS analysis.
Bioanalytical analysis: A LC-MS/MS method for the quantitative determination of tested compound in biological matrix were developed under non-GLP compliance. A calibration curve with at least 7 non-zero calibration standards were applied for the method including LLOQ.
Plasma concentration versus time data were analyzed by non-compartmental approaches using the Phoenix WinNonlin 6.3 software program. Cl, Vdss, C0, Cmax, Tmax, T^1/2, AUC(0-t), AUC(0-inf), MRT(0-t), MRT(0-inf), % F (oral availability) and graphs of plasma concentration versus time profile were reported.

Data set [2] can be described thus: Microsomal stability assay, mouse liver microsomes. The data set is classed as in vitro ADME. The following applies: for microsomal CLint at 1 μM: mouse, liver microsomes, pH 7.4, mouse liver microsomes, 1 μM compound, 0.5 mg/mL protein, 37° C., read-out: MLM +30/− NADPH: Clint (μL/min/mg protein); for half-life at 1 μM: pH 7.4, mouse liver microsomes, read-out: Liver microsome T½ (min) Mouse. The method in brief:
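Compound at 1 μM was incubated at 37° C with 0.5 mg/mL liver microsomes and 1 mM NADPH and/or 1 mM UDPGA (with alamethicin) in 100 mM potassium phosphate pH 7.4, 3 mM MgCl2. Samples were taken at 0, 15, 30 and 60 min and measured by LC/MS/MS. t½ came from compound loss relative to 0 min, and Clint was scaled with 45 mg microsomal protein/g liver.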
(In general: Liver microsomes are a subcellular fraction often used to study metabolism.)

The target in data set [3] is T1, LBD of glucocorticoid receptor (GR) fused to DBD of GAL4 (Homo sapiens, UniProt P04150).
T1 sequence (P04150 524-758 limits assumed): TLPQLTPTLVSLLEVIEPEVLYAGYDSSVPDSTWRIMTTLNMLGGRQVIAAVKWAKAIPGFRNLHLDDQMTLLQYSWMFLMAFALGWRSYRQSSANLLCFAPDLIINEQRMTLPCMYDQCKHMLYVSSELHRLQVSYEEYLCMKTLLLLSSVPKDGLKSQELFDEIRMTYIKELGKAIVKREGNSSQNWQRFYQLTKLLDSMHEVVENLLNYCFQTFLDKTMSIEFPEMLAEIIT
Put plainly: LBD-expressing reporter assay (GeneBLAzer), GR LBD. The data set is classed as cell-based. Particulars: inhibition of maximal activity attained with agonist; read-out: Steroid Receptor LBD IC50 (μM) GR. The source says:
This assay uses cells that stably express a chimera fusion protein comprising the LBD of a steroid hormone receptor fused to the DNA-binding domain (DBD) of GAL4 along with beta-lactamase reporter under transcriptional control of an upstream activator sequence (UAS). When agonist binds to the LBD of the GAL4 (DBD)-steroid hormone (LBD) chimera fusion protein, the protein binds to the UAS, resulting in expression of beta-lactamase. LBDs of androgen receptor (AR), progesterone receptor-beta (PRβ), glucocorticoid receptor (GR), estrogen receptor-α (ERα), and estrogen receptor-β (ERβ) were tested and IC50s calculated for inhibiting maximal activity attained with agonist.
On the technique in general: A reporter such as luciferase makes a cellular process visible.

Where [4] appears, read: plasma, single PO dose 5 mg/kg, male CD-1 mice, oral availability.
Setting [5] is: single PO dose 5 mg/kg, male CD-1 mice, plasma.

Bounds are passed on as bounds.

One may read the AUC(0-t) as exposure summed from dosing to a finite time, without extrapolation to infinity. A higher AUC(0-t) goes with more exposure. In general, Cmax refers to the maximum level reached in the sampled fluid or tissue. As a reminder, the Tmax is the time from dosing to the highest level. Consider `C[C@H](Oc1ccc(C(C)(C)c2cc(Cl)c(OCCCl)c(C#N)c2)cc1)c1ccnc(NS(C)(=O)=O)n1` (single isomer, unassigned) [Compound A170], for which the bioavailability in data set [1] (setting [4]) was determined as 150%. In addition, in data set [1] (setting [5]), the AUC(0-t) was found to be 80000 ng·h/mL, the Cmax amounted to 8500 ng/mL, the Tmax was determined as 3 h and the half-life was 180 min. The “AUC/D” value in data set [1] (setting [5]) came out at 16007.6 kg·ng·h/mL/mg. In addition, the microsomal CLint at 1 μM in data set [2] was less than 12 µL/min/mg.

In general, IC50 refers to the concentration at which inhibition is half-maximal. `CC(C)(c1ccc(OCc2ocnc2S(C)(=O)=O)cc1)c1cc(Cl)c(OCCCl)c(Cl)c1` [Compound A13, 5-((4-(2-(3,5-dichloro-4-(2-chloroethoxy)phenyl)propan-2-yl)phenoxy)methyl)-4-(methylsulfonyl)oxazole]: the “Cmin at 5 mg/kg PO” value in data set [1] was found to be 0.23 µM. Also, in data set [1] (setting [4]), the bioavailability turned out to be 85.8%. In data set [1] (setting [5]), the AUC(0-t) came out at 8310 ng·h/mL, the Cmax was found to be 1140 ng/mL, the Tmax came to 1 h and the half-life is 498 min. Further, the “AUC/D” value in data set [1] (setting [5]) stood at 1661.9 kg·ng·h/mL/mg. For the same molecule, in data set [2], the microsomal CLint at 1 μM was less than 12 µL/min/mg and the half-life at 1 μM is more than 120 min. Moreover, in data set [3], the IC50 is more than 10 µM.

As to `CC(C)(c1ccc(OCc2ocnc2S(C)(=O)=O)cc1)c1cc(Cl)c(OCCCl)c(C#N)c1` [Compound A28, 3-chloro-2-(2-chloroethoxy)-5-(2-(4-((4-(methylsulfonyl)oxazol-5-yl)methoxy)phenyl)propan-2-yl)benzonitrile], the bioavailability in data set [1] (setting [4]) was determined as 50.3%. Further, in data set [1] (setting [5]), the AUC(0-t) stood at 8430 ng·h/mL, the highest concentration (Cmax) worked out at 2010 ng/mL, the Tmax was determined as 0.5 h and the half-life is 168 min. Also, the “AUC/D” value in data set [1] (setting [5]) turned out to be 1685.1 kg·ng·h/mL/mg. Moreover, in data set [2], the microsomal CLint at 1 μM lay within 12 to 48 µL/min/mg and the half-life at 1 μM amounted to 74 min. Besides, the IC50 in data set [3] is more than 10 µM.

For the molecule `CC(C)(c1ccc(OCc2coc(NS(C)(=O)=O)n2)cc1)c1cc(Cl)c(OCCCl)c(Cl)c1` [Compound A38, N-(4-((4-(2-(3,5-dichloro-4-(2-chloroethoxy)phenyl)propan-2-yl)phenoxy)methyl)oxazol-2-yl)methanesulfonamide], the bioavailability in data set [1] (setting [4]) was determined as 86.4%. Further, in data set [1] (setting [5]), the AUC(0-t) was found to be 12800 ng·h/mL, the Cmax is 1270 ng/mL, the Tmax came to 3.3 h and the half-life is 294 min. The “AUC/D” value in data set [1] (setting [5]) worked out at 2561.0 kg·ng·h/mL/mg. Further, in data set [2], the microsomal CLint at 1 μM is less than 12 µL/min/mg and the half-life at 1 μM is more than 120 min. Besides, the IC50 in data set [3] was more than 10 µM.

Broadly, the t½ is the time in which the quantity being followed falls by half. Consider `CC(C)(c1ccc(OCc2ccnc(NS(C)(=O)=O)n2)cc1)c1cc(Cl)c(OCCCl)c(Cl)c1` [Compound A74, N-(4-((4-(2-(3,5-dichloro-4-(2-chloroethoxy)phenyl)propan-2-yl)phenoxy)methyl)pyrimidin-2-yl)methanesulfonamide], for which the “Cmin at 5 mg/kg PO” value in data set [1] was determined as 2.42 µM. For the same molecule, in data set [1] (setting [5]), the AUC(0-t) came to 72700 ng·h/mL, the Cmax was found to be 6310 ng/mL, the Tmax came to 2.7 h and the “AUC/D” value is 14542.3 kg·ng·h/mL/mg. Besides, the “t½” value in data set [1] (setting [5]) was 12.5 h. Further, in data set [1] (single PO dose 5 mg/kg, male CD-1 mice, oral availability), the “F (%)” value amounted to 71.9%. Moreover, in data set [2], the microsomal CLint at 1 μM is less than 12 µL/min/mg and the half-life at 1 μM was more than 120 min. For the same molecule, the IC50 in data set [3] was determined as 9.51 µM.

Regarding `CC(C)(c1ccc(OCc2ncc(S(C)(=O)=O)s2)cc1)c1cc(Cl)c(OCCCl)c(C#N)c1` [Compound A93, 3-chloro-2-(2-chloroethoxy)-5-(2-(4-((5-(methylsulfonyl)thiazol-2-yl)methoxy)phenyl)propan-2-yl)benzonitrile], the bioavailability in data set [1] (setting [4]) is 62.8%. Moreover, in data set [1] (setting [5]), the AUC(0-t) is 32900 ng·h/mL, the highest level (Cmax) was 2970 ng/mL, the Tmax stood at 0.8 h and the half-life was 1030 min. Besides, the “AUC/D” value in data set [1] (setting [5]) was 6575.7 kg·ng·h/mL/mg. In data set [2], the microsomal CLint at 1 μM was less than 12 µL/min/mg and the half-life at 1 μM was more than 120 min. Besides, the IC50 in data set [3] is more than 10 µM.

As for `CC(C)(c1ccc(OCc2ccnc(NS(C)(=O)=O)n2)cc1)c1cc(Cl)c(OCCCl)c(C#N)c1` [Compound A109, N-(4-((4-(2-(3-chloro-4-(2-chloroethoxy)-5-cyanophenyl)propan-2-yl)phenoxy)methyl)pyrimidin-2-yl)methanesulfonamide], the “Cmin at 5 mg/kg PO” value in data set [1] came out at 0.68 µM. Further, the bioavailability in data set [1] (setting [4]) stood at 33.6%. In data set [1] (setting [5]), the AUC(0-t) was 30700 ng·h/mL, the Cmax was found to be 2670 ng/mL, the Tmax is 2.2 h and the half-life is 486 min. In addition, in data set [1] (setting [5]), the “AUC/D” value worked out at 6143.0 kg·ng·h/mL/mg. In addition, in data set [2], the microsomal CLint at 1 μM is less than 12 µL/min/mg and the half-life at 1 μM was more than 120 min. The IC50 in data set [3] was more than 10 µM.

`Cc1cnc(NS(C)(=O)=O)nc1COc1ccc(C(C)(C)c2cc(Cl)c(OCCCl)c(C#N)c2)cc1` [Compound A122, N-(4-((4-(2-(3-Chloro-4-(2-chloroethoxy)-5-cyanophenyl)propan-2-yl)phenoxy)methyl)-5-methylpyrimidin-2-yl)methanesulfonamide]: the bioavailability in data set [1] (setting [4]) came to 92.4%. Moreover, in data set [1] (setting [5]), the AUC(0-t) amounted to 6800 ng·h/mL, the Cmax stood at 4080 ng/mL, the Tmax turned out to be 0.5 h and the half-life was 66 min. The “AUC/D” value in data set [1] (setting [5]) was determined as 1360.0 kg·ng·h/mL/mg. For the same molecule, the microsomal CLint at 1 μM in data set [2] was 12 to 48 µL/min/mg.

Turning to `CCS(=O)(=O)Nc1nc(COc2ccc(C(C)(C)c3cc(Cl)c(OCCCl)c(C#N)c3)cc2)co1` [Compound A126], the bioavailability in data set [1] (setting [4]) stood at 86%. For the same molecule, in data set [1] (setting [5]), the AUC(0-t) came to 24500 ng·h/mL, the Cmax was determined as 3110 ng/mL, the Tmax amounted to 1.3 h and the half-life was 282 min. In addition, the “AUC/D” value in data set [1] (setting [5]) amounted to 4909.4 kg·ng·h/mL/mg. In addition, in data set [2], the microsomal CLint at 1 μM is less than 12 µL/min/mg.

In the case of `CCS(=O)(=O)Nc1nccc(COc2ccc(C(C)(C)c3cc(Cl)c(OCCCl)c(C#N)c3)cc2)n1` [Compound A131], the bioavailability in data set [1] (setting [4]) is 81%. In data set [1] (setting [5]), the AUC(0-t) was found to be 76000 ng·h/mL, the Cmax amounted to 7050 ng/mL, the Tmax amounted to 1.3 h and the half-life was 300 min. Besides, in data set [1] (setting [5]), the “AUC/D” value turned out to be 15209.4 kg·ng·h/mL/mg. Further, in data set [2], the microsomal CLint at 1 μM was less than 12 µL/min/mg.

As for `CC(C)(c1ccc(OCc2nc(S(C)(=O)=O)cs2)cc1)c1cc(Cl)c(OCCCl)c(C#N)c1` [Compound A136, 3-Chloro-2-(2-chloroethoxy)-5-(2-(4-((4-(methylsulfonyl)thiazol-2-yl)methoxy)phenyl)propan-2-yl)benzonitrile], in data set [1] (setting [4]), the bioavailability is 14%. In data set [1] (setting [5]), the area under the curve AUC(0-t) amounted to 42000 ng·h/mL, the Cmax amounted to 3430 ng/mL, the Tmax was determined as 1.5 h and the half-life was 612 min. Also, in data set [1] (setting [5]), the “AUC/D” value came out at 8407.6 kg·ng·h/mL/mg. For the same molecule, the microsomal CLint at 1 μM in data set [2] fell in the range of 12 to 48 µL/min/mg.

Regarding `CC(C)(c1ccc(OC[C@H](O)CNS(C)(=O)=O)cc1)c1cc(Cl)c(OC[C@H](O)CCl)c(Cl)c1` [X, reference compound], the IC50 in data set [3] is more than 10 µM.
